{"source": "patent US7192924B2", "about": "“Corticotropin releasing factor 2 receptor agonists” (priority 2002, dated 2007)", "key": {"CRF2R": {"target": "T1, CRF2R (Homo sapiens, UniProt Q13324)", "T1 sequence (Q13324 1-411)": "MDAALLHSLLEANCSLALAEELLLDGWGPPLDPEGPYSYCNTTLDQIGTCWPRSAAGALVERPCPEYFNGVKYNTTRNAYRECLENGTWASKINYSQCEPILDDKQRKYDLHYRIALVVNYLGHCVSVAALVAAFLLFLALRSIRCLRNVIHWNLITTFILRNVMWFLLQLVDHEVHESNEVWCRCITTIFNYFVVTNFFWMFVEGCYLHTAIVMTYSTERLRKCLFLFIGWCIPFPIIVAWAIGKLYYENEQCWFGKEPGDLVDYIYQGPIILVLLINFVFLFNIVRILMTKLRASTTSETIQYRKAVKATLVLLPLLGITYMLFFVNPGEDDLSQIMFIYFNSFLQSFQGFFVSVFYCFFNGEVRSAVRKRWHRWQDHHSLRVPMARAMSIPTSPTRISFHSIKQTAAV", "experiment": "CRF2R agonist activity (EC50, Emax), called comparative CRF binding", "type": "cell-based", "conditions": "read-out: CRF2R EC50", "in_short": "(§1)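 cAMP read-out: CRE-linked reporter (e.g. luciferase, CAT, GFP) or lysate cAMP in CRF1R- or CRF2R-expressing cells after peptide exposure; vehicle control comparison. Signal from any non-target CRFR subtracted.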"}, "CRF1R": {"target": "T2, CRF1R (Homo sapiens, UniProt P34998)", "T2 sequence (P34998 24-415)": "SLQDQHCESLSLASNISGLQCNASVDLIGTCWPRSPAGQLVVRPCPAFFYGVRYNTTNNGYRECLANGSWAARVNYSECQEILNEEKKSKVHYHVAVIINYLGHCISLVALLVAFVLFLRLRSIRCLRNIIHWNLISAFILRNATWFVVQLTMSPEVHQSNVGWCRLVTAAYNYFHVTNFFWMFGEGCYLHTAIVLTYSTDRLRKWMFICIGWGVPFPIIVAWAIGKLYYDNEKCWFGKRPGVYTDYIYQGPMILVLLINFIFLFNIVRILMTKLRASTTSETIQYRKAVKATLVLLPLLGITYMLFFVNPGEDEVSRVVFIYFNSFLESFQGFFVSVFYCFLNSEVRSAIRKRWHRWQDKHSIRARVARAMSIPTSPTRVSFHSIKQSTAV", "experiment": "CRF1R agonist activity (EC50, Emax), called comparative CRF binding", "type": "cell-based", "conditions": "read-out: CRF1R EC50", "in_short": "as §1"}}, "note": "pEC50: −log10 of the molar value. Peptide text beside a SMILES is read from it.", "data": [{"smiles": "CC[C@H](C)[C@H](NC(=O)[C@H](C)NC(=O)[C@H](CC(N)=O)NC(=O)[C@H](CCC(N)=O)NC(=O)[C@H](CCC(=O)O)NC(=O)[C@H](C)NC(=O)[C@H](CCCNC(=N)N)NC(=O)[C@H](CCC(=O)O)NC(=O)[C@H](CCCNC(=N)N)NC(=O)[C@H](CCC(N)=O)NC(=O)[C@H](CO)NC(=O)[C@H](CCC(N)=O)NC(=O)[C@@H](NC(=O)[C@H](CCCNC(=N)N)NC(=O)[C@H](C)NC(=O)[C@H](CC(C)C)NC(=O)[C@H](CCC(=O)O)NC(=O)[C@H](CC(C)C)NC(=O)[C@H](CC(C)C)NC(=O)[C@@H](NC(=O)[C@H](CCCNC(=N)N)NC(=O)[C@H](CC(C)C)NC(=O)[C@H](CC(C)C)NC(=O)[C@H](Cc1c[nH]cn1)NC(=O)[C@H](CC(C)C)NC(=O)[C@@H]1CCCN1C(=O)[C@H](CC(C)C)NC(=O)[C@H](CC(=O)O)NC(=O)[C@@H](NC(=O)[C@H](CO)NC(=O)[C@H](CC(C)C)NC(=O)[C@H](CO)NC(=O)[C@@H]1CCCN1C(=O)[C@H](CC(N)=O)NC(=O)[C@@H](N)CC(=O)O)[C@@H](C)CC)[C@@H](C)O)[C@@H](C)O)C(=O)N[C@H](C(=O)N[C@@H](Cc1ccccc1)C(=O)N[C@@H](C)C(=O)N[C@@H](CO)C(=O)N[C@H](C(N)=O)C(C)C)[C@@H](C)CC", "note": "[compound 179] (H-DNPSLSIDLPLHLLRTLLELARTQSQRERAEQNAIIFASV-NH2; N-terminus assumed)", "values": [{"measurement": "pEC50", "setting": "CRF2R", "value": 7.99}, {"measurement": "pEC50", "setting": "CRF1R", "value": 6.32}]}, {"smiles": "CC[C@H](C)[C@H](NC(=O)[C@H](C)NC(=O)[C@H](CC(N)=O)NC(=O)[C@H](CCC(N)=O)NC(=O)[C@H](CCC(=O)O)NC(=O)[C@H](C)NC(=O)[C@H](CCCNC(=N)N)NC(=O)[C@H](CCC(=O)O)NC(=O)[C@H](CCCNC(=N)N)NC(=O)[C@H](CCC(N)=O)NC(=O)[C@H](CO)NC(=O)[C@H](CCC(N)=O)NC(=O)[C@@H](NC(=O)[C@H](CCCNC(=N)N)NC(=O)[C@H](C)NC(=O)[C@H](CC(C)C)NC(=O)[C@H](CCC(=O)O)NC(=O)[C@H](CC(C)C)NC(=O)[C@H](CC(C)C)NC(=O)[C@@H](NC(=O)[C@H](CCCNC(=N)N)NC(=O)[C@H](CC(C)C)NC(=O)[C@H](CC(C)C)NC(=O)[C@@H](NC(=O)[C@H](Cc1ccccc1)NC(=O)[C@@H]1CCCN1C(=O)[C@H](CC(C)C)NC(=O)[C@H](CC(=O)O)NC(=O)[C@@H](NC(=O)[C@H](CO)NC(=O)[C@H](CC(C)C)NC(=O)[C@H](CO)NC(=O)[C@@H]1CCCN1C(=O)[C@H](CC(N)=O)NC(=O)[C@@H](N)CC(=O)O)[C@@H](C)CC)[C@@H](C)CC)[C@@H](C)O)[C@@H](C)O)C(=O)N[C@H](C(=O)N[C@@H](Cc1ccccc1)C(=O)N[C@@H](C)C(=O)N[C@@H](CO)C(=O)N[C@H](C(N)=O)C(C)C)[C@@H](C)CC", "note": "[compound 181] (H-DNPSLSIDLPFILLRTLLELARTQSQRERAEQNAIIFASV-NH2; N-terminus assumed)", "values": [{"measurement": "pEC50", "setting": "CRF2R", "value": 8.28}, {"measurement": "pEC50", "setting": "CRF1R", "value": 6.81}]}, {"smiles": "CC[C@H](C)[C@H](NC(=O)[C@H](C)NC(=O)[C@H](CC(N)=O)NC(=O)[C@H](CCC(N)=O)NC(=O)[C@H](CCC(=O)O)NC(=O)[C@H](C)NC(=O)[C@H](CCCNC(=N)N)NC(=O)[C@H](CCC(=O)O)NC(=O)[C@H](CCCNC(=N)N)NC(=O)[C@H](CCC(N)=O)NC(=O)[C@H](CO)NC(=O)[C@H](CCC(N)=O)NC(=O)[C@@H](NC(=O)[C@H](CCCNC(=N)N)NC(=O)[C@H](C)NC(=O)[C@H](CC(C)C)NC(=O)[C@H](CCC(=O)O)NC(=O)[C@H](CC(C)C)NC(=O)[C@H](CC(C)C)NC(=O)[C@@H](NC(=O)[C@H](CCCNC(=N)N)NC(=O)[C@H](CC(C)C)NC(=O)[C@H](CC(C)C)NC(=O)[C@H](Cc1ccc(O)cc1)NC(=O)[C@H](Cc1ccccc1)NC(=O)[C@@H]1CCCN1C(=O)[C@H](CC(C)C)NC(=O)[C@H](CC(=O)O)NC(=O)[C@@H](NC(=O)[C@H](CO)NC(=O)[C@H](CC(C)C)NC(=O)[C@H](CO)NC(=O)[C@@H]1CCCN1C(=O)[C@H](CC(N)=O)NC(=O)[C@@H](N)CC(=O)O)[C@@H](C)CC)[C@@H](C)O)[C@@H](C)O)C(=O)N[C@H](C(=O)N[C@@H](Cc1ccccc1)C(=O)N[C@@H](C)C(=O)N[C@@H](CO)C(=O)N[C@H](C(N)=O)C(C)C)[C@@H](C)CC", "note": "[compound 183] (H-DNPSLSIDLPFYLLRTLLELARTQSQRERAEQNAIIFASV-NH2; N-terminus assumed)", "values": [{"measurement": "pEC50", "setting": "CRF2R", "value": 8.10}, {"measurement": "pEC50", "setting": "CRF1R", "value": 6.38}]}, {"smiles": "CC[C@H](C)[C@H](N)C(=O)N[C@H](C(=O)N[C@@H](CC(C)C)C(=O)N[C@@H](CO)C(=O)N[C@@H](CC(C)C)C(=O)N[C@@H](CC(=O)O)C(=O)N[C@H](C(=O)N[C@H](C(=O)N[C@H](C(=O)NCC(=O)N[C@@H](CC(C)C)C(=O)N[C@@H](CC(C)C)C(=O)N[C@@H](CCC(N)=O)C(=O)N[C@H](C(=O)N[C@@H](CC(C)C)C(=O)N[C@@H](CC(C)C)C(=O)N[C@@H](CCC(=O)O)C(=O)N[C@@H](CCC(N)=O)C(=O)N[C@@H](C)C(=O)N[C@@H](CCCNC(=N)N)C(=O)N[C@@H](C)C(=O)N[C@@H](CCCNC(=N)N)C(=O)N[C@@H](C)C(=O)N[C@@H](C)C(=O)N[C@@H](CCCNC(=N)N)C(=O)N[C@@H](CCC(=O)O)C(=O)N[C@@H](CCC(N)=O)C(=O)N[C@@H](C)C(=O)N[C@H](C(=O)N[C@H](C(=O)N[C@@H](CC(N)=O)C(=O)N[C@@H](C)C(=O)N[C@@H](CCCNC(=N)N)C(=O)N[C@H](C(=O)N[C@@H](CC(C)C)C(=O)N[C@@H](C)C(=O)N[C@@H](CCCNC(=N)N)C(=O)N[C@H](C(N)=O)C(C)C)[C@@H](C)CC)[C@@H](C)O)[C@@H](C)O)[C@@H](C)CC)[C@@H](C)CC)C(C)C)C(C)C)C(C)C", "note": "[compound 214] (H-IVLSLDVVIGLLQILLEQARARAAREQATTNARILARV-NH2; N-terminus assumed)", "values": [{"measurement": "pEC50", "setting": "CRF2R", "value": 7.13}, {"measurement": "pEC50", "setting": "CRF1R", "value": "≤ 7.00"}]}, {"smiles": "CC[C@H](C)[C@H](NC(=O)[C@H](C)NC(=O)[C@H](CC(N)=O)NC(=O)[C@H](CCC(N)=O)NC(=O)[C@H](CCC(=O)O)NC(=O)[C@H](C)NC(=O)[C@H](CCCNC(=N)N)NC(=O)[C@H](CCC(=O)O)NC(=O)[C@H](CCCNC(=N)N)NC(=O)[C@H](CCC(N)=O)NC(=O)[C@H](CO)NC(=O)[C@H](CCC(N)=O)NC(=O)[C@@H](NC(=O)[C@H](CCCNC(=N)N)NC(=O)[C@H](C)NC(=O)[C@H](CC(C)C)NC(=O)[C@H](CCC(=O)O)NC(=O)[C@H](CC(C)C)NC(=O)[C@H](CC(C)C)NC(=O)[C@@H](NC(=O)[C@H](CCCNC(=N)N)NC(=O)[C@H](CC(C)C)NC(=O)[C@H](CC(C)C)NC(=O)[C@H](Cc1ccc(O)cc1)NC(=O)[C@H](Cc1ccc(O)cc1)NC(=O)[C@@H]1CCCN1C(=O)[C@H](CC(C)C)NC(=O)[C@H](CC(=O)O)NC(=O)[C@@H](NC(=O)[C@H](CO)NC(=O)[C@H](CC(C)C)NC(=O)[C@H](CO)NC(=O)[C@@H]1CCCN1C(=O)[C@H](CC(N)=O)NC(=O)[C@@H](N)CC(=O)O)[C@@H](C)CC)[C@@H](C)O)[C@@H](C)O)C(=O)N[C@H](C(=O)N[C@@H](Cc1ccccc1)C(=O)N[C@@H](C)C(=O)N[C@@H](CO)C(=O)N[C@H](C(N)=O)C(C)C)[C@@H](C)CC", "note": "[compound 263] (H-DNPSLSIDLPYYLLRTLLELARTQSQRERAEQNAIIFASV-NH2; N-terminus assumed)", "values": [{"measurement": "pEC50", "setting": "CRF2R", "value": 7.44}, {"measurement": "pEC50", "setting": "CRF1R", "value": 6.10}]}, {"smiles": "CC[C@H](C)[C@H](N)C(=O)N[C@H](C(=O)N[C@@H](CC(C)C)C(=O)N[C@@H](CO)C(=O)N[C@@H](CC(C)C)C(=O)N[C@@H](CC(=O)O)C(=O)N[C@H](C(=O)N1CCC[C@H]1C(=O)N[C@H](C(=O)NCC(=O)N[C@@H](CC(C)C)C(=O)N[C@@H](CC(C)C)C(=O)N[C@@H](CCC(N)=O)C(=O)N[C@@H](CCCCN)C(=O)N[C@H](C(=O)N[C@H](C(=O)N[C@@H](CCC(=O)O)C(=O)N[C@H](C(=O)N[C@@H](CCC(=O)O)C(=O)N[C@@H](CCCCN)C(=O)N[C@@H](CCC(N)=O)C(=O)N[C@@H](CCC(=O)O)C(=O)N[C@@H](CCCCN)C(=O)N[C@@H](CCC(=O)O)C(=O)N[C@@H](CCCCN)C(=O)N[C@@H](CCC(N)=O)C(=O)N[C@@H](CCC(N)=O)C(=O)N[C@@H](C)C(=O)N[C@H](C(=O)N[C@H](C(=O)N[C@@H](CC(N)=O)C(=O)N[C@@H](C)C(=O)N[C@@H](CCCNC(=N)N)C(=O)N[C@H](C(=O)N[C@@H](CC(C)C)C(=O)N[C@@H](C)C(=O)N[C@@H](CCCNC(=N)N)C(=O)N[C@H](C(N)=O)C(C)C)[C@@H](C)CC)[C@@H](C)O)[C@@H](C)O)[C@@H](C)CC)[C@@H](C)CC)C(C)C)[C@@H](C)CC)C(C)C)C(C)C", "note": "[compound 300] (H-IVLSLDVPIGLLQKVIEIEKQEKEKQQATTNARILARV-NH2; N-terminus assumed)", "values": [{"measurement": "pEC50", "setting": "CRF2R", "value": 7.77}, {"measurement": "pEC50", "setting": "CRF1R", "value": "≤ 6.00"}]}]}
